The source made the active and inactive calls.
Experiments:
[1] = target: T1, Sentrin-specific protease 8 (Homo sapiens, UniProt Q96LD8); assay type: functional
T1 sequence (Q96LD8 whole entry): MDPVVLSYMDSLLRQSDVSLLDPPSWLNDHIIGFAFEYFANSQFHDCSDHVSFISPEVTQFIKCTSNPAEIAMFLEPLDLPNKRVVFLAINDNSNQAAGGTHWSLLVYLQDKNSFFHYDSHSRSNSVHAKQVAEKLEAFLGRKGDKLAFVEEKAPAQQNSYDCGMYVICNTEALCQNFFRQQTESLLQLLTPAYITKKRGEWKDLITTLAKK

Caspase-3 = target: T2, Caspase-3 (Homo sapiens, UniProt P42574); assay type: functional;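 also: Dose-response selectivity test against caspase-3 for candidate inhibitors of sentrin-specific proteases (SENPs)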
T2 sequence (P42574 whole entry): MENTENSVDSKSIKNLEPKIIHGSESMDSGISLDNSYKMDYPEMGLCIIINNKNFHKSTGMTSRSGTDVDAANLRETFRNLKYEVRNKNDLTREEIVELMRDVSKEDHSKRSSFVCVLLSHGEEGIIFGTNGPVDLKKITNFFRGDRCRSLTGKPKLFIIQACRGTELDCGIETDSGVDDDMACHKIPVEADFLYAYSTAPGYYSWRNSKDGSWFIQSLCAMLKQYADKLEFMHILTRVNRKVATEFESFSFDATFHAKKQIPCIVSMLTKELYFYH

[2] = target: T3, Mitochondrial peptide methionine sulfoxide reductase (Bos taurus, UniProt P54149); experiment: Absorbance-based biochemical high throughput dose response assay for activators of Methionine sulfoxide reductase A (MsrA).; assay type: functional
[3] = target: T4, Sentrin-specific protease 6 (Homo sapiens, UniProt Q9GZR1); assay type: functional;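 also: Luminescence-based dose-response confirmatory assay of SENP6 inhibition, following up an ultra-high-throughput screen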
T4 sequence (Q9GZR1 whole entry): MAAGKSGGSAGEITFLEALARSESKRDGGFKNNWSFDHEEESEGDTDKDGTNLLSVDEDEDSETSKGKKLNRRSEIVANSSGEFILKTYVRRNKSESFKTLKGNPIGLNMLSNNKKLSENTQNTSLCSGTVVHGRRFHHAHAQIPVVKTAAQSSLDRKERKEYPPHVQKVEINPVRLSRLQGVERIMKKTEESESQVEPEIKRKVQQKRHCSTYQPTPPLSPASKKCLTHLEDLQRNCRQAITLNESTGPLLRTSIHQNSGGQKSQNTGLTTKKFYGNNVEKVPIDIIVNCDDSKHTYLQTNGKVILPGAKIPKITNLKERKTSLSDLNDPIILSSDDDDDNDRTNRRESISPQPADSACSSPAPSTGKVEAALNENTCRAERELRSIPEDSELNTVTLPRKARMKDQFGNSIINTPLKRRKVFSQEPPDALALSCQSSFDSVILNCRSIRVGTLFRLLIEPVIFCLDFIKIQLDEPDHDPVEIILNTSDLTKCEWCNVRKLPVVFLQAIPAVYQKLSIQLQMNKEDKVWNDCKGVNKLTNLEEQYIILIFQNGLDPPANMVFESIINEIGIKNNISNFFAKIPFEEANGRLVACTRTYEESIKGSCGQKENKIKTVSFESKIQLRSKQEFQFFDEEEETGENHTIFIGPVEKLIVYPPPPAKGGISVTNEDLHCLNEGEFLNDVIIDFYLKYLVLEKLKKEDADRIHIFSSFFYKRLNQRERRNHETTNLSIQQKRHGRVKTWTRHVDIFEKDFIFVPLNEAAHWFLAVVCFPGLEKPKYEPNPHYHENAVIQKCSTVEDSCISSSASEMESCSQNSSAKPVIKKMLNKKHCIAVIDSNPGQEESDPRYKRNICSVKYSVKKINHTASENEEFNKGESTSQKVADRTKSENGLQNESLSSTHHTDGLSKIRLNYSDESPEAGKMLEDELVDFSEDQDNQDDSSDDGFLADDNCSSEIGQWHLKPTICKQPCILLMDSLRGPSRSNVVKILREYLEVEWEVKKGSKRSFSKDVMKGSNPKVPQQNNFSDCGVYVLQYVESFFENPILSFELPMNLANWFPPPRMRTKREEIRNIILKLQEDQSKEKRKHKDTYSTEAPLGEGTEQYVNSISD

[4] = target: T1, Sentrin-specific protease 8; assay type: functional; remark: listed apart in the source
[5] = target: T5, Sentrin-specific protease 7 (Homo sapiens, UniProt Q9BQF6); assay type: functional;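 also: Luminescence-based dose-response confirmation of ultra-high-throughput screening hits, measuring inhibition of SENP7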
T5 sequence (Q9BQF6 whole entry): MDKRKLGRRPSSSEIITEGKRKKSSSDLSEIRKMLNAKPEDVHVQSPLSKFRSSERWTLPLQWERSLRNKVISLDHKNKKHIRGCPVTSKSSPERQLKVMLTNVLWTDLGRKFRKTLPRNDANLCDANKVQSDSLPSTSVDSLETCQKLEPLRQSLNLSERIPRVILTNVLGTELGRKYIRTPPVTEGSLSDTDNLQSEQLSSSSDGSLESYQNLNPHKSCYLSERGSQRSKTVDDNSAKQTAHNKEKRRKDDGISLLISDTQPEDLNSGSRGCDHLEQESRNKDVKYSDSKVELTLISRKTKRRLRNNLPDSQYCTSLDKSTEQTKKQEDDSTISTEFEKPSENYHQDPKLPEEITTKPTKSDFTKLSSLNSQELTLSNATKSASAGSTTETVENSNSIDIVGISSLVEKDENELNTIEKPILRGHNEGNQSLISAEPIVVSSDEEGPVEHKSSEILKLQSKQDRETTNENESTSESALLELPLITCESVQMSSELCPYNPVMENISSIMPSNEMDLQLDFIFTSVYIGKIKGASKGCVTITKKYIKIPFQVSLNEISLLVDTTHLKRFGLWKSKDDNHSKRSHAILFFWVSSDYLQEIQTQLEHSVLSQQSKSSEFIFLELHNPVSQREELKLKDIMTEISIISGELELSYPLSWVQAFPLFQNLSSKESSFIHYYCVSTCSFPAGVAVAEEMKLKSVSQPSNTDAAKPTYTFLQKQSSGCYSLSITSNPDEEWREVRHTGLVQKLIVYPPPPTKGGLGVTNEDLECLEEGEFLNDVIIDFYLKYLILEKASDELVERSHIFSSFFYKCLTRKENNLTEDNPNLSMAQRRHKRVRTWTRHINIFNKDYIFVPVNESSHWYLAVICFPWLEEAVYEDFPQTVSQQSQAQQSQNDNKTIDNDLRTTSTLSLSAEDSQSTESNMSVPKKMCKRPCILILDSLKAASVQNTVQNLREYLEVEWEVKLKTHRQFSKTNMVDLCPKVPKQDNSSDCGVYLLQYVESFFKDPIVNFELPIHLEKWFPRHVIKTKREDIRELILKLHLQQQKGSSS

[6] = HIV-1 AD8 envelope cell-cell fusion blockers – cherry-pick, dose response (AID 652062); assay type: functional, cell-based;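 also: luciferase signal from cell-cell fusion driven by HIV-1 clade B AD8 Env; potency is for inhibitors of fusion seen as a drop in luminescence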
[7] = target: T6, Microphthalmia-associated transcription factor (Homo sapiens, UniProt O75030); experiment: reducers of TRPM1 reporter luminescence, concentration series – cell-based, SK-MEL-5, cherry-picked, set 3, MITF inhibitor project, dose response (AID 493073); assay type: functional;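 also: SK-MEL-5 melanoma cells with luciferase driven by the MITF target TRPM1 promoter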
T6 sequence (O75030 whole entry): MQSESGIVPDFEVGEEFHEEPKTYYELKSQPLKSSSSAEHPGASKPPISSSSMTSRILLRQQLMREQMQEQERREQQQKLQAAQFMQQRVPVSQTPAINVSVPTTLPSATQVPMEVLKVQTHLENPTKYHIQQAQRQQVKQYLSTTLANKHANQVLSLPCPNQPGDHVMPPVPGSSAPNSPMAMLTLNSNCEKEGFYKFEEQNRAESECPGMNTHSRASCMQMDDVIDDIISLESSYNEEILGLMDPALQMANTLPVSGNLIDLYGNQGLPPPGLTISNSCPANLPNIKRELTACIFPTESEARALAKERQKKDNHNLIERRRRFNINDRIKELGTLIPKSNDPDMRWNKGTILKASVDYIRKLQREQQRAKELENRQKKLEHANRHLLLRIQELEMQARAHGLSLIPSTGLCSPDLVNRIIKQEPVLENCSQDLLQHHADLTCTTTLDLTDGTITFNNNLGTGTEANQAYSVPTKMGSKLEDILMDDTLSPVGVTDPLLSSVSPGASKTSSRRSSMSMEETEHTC

[8] = blockers of HIV-1 ZM109 envelope-driven cell-cell fusion – HeLa effector, CEM target cells, luciferase, cherry-pick, dose response (AID 652058); assay type: functional, cell-based;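 also: luciferase signal from HIV-1 Env mediated cell-cell fusion of effector and target cells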
[9] = off-target signal loss in HeLa-CEM21 co-culture – HeLa F-luc CTL cells, cherry-picked, counter-screen for HIV-1 Env fusion inhibitor project, dose response (AID 652040); assay type: functional, cell-based;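 also: potency for signal decrease marking cytotoxic or nonspecific inhibition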
[10] = target: Sphingosine 1-phosphate receptor 2 (Homo sapiens, UniProt O95136); experiment: Dose Response Cell Based Assay for Antagonists of the S1P2 Receptor. [Related pubchem assays: 856, 736 ]; assay type: functional
Cytochrome P450 3A4 = Cytochrome P450 3A4 (Homo sapiens, UniProt P08684);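 also: CYP3A4 tested as one member of a cytochrome P450 panel screen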
[11] = target: Dual specificity tyrosine-phosphorylation-regulated kinase 1A (Rattus norvegicus, UniProt Q63470); assay type: biochemical, Homo sapiens
[12] = target: T7, Heat shock factor protein 1 (Mus musculus, UniProt P38532); experiment: decrease of HSF1-responsive luciferase luminescence – cell-based, NIH3T3, dose retest, confirmation (AID 2382); assay type: functional;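 also: NIH3T3 fibroblasts with HSF1-driven luciferase reporter stressed by proteasome inhibitor MG132; luminescence from HSF1-driven luciferase expression after 8 hours of MG132 stress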
T7 sequence (P38532 whole entry): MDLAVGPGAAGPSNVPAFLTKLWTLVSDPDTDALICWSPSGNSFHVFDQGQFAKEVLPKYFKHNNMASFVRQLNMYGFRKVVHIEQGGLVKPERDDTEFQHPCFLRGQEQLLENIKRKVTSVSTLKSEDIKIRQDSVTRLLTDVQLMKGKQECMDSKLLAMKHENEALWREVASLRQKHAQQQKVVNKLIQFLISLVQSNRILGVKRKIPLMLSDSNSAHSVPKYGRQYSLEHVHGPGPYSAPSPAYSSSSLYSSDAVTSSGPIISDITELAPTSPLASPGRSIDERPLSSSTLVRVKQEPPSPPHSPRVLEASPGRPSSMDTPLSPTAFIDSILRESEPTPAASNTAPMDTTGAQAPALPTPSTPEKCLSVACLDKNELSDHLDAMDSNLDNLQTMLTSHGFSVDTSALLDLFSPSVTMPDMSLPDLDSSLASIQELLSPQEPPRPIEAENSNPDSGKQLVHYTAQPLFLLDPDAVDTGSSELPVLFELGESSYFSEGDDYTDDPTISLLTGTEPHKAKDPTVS

Interleukin-8 [13] = target: T8, Interleukin-8 (Homo sapiens, UniProt P10145); experiment: Dose Response confirmation of uHTS small molecule hits for cystic fibrosis induced NFkb Inhibitors in a TNFa-induced IL8 counterscreen.; assay type: functional; settings: read-out: IC50_Mean
T8 sequence (P10145 whole entry): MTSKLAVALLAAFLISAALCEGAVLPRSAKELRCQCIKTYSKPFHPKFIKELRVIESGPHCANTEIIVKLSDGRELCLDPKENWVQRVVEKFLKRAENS

Interleukin-8 [14] = target: T8, Interleukin-8; experiment: Dose Response confirmation of uHTS small molecule hits for cystic fibrosis induced NFkb Inhibitors in a PAF-induced IL8 counterscreen.; assay type: functional; settings: read-out: IC50_Mean
[15] = viability loss in CEM21 cells – cell-based, CellTiter-Glo luminescence, cherry-picked, cytotoxicity control for viral fusion inhibitor project, dose response (AID 652042); assay type: functional;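 also: potency for signal decrease meaning cytotoxicity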
[16] = blockers of HIV-1 envelope-mediated cell-cell fusion – cherry-pick, dose response (AID 652057); assay type: functional, cell-based
[17] = THP-1 cell cytotoxicity, cytotoxicity control, set 4 (AID 504911); assay type: functional; settings: Mycobacterium tuberculosis
[18] = bead-based luminescence quenchers, dual-tagged ARNT – biochemical, AlphaScreen, cherry-pick, artefact control for ARNT-TACC3 interaction inhibitor project, dose response (AID 651705); assay type: functional;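 also: AlphaScreen bead proximity signal that flags compounds interfering with the detection technology; potency reflects signal decrease which marks the compound as an assay artifact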
[19] = target: T3, Mitochondrial peptide methionine sulfoxide reductase; assay type: functional

T3 sequence (P54149 whole entry): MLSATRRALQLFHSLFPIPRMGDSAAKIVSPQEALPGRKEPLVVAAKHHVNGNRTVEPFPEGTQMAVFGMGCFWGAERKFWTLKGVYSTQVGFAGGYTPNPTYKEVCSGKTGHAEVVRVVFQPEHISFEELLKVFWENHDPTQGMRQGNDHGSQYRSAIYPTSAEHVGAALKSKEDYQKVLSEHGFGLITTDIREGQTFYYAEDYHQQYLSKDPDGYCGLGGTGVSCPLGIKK
Sequence of Sphingosine 1-phosphate receptor 2 (O95136 whole entry): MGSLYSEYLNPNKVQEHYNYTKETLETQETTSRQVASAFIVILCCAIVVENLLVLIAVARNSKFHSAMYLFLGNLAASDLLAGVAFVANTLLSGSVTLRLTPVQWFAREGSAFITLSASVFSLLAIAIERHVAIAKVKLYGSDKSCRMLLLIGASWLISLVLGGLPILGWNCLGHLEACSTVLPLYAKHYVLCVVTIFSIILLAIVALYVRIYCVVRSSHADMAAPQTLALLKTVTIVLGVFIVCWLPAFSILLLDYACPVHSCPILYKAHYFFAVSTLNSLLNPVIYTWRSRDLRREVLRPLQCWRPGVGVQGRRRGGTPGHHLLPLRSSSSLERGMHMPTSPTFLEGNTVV
Sequence of Cytochrome P450 3A4 (P08684 whole entry): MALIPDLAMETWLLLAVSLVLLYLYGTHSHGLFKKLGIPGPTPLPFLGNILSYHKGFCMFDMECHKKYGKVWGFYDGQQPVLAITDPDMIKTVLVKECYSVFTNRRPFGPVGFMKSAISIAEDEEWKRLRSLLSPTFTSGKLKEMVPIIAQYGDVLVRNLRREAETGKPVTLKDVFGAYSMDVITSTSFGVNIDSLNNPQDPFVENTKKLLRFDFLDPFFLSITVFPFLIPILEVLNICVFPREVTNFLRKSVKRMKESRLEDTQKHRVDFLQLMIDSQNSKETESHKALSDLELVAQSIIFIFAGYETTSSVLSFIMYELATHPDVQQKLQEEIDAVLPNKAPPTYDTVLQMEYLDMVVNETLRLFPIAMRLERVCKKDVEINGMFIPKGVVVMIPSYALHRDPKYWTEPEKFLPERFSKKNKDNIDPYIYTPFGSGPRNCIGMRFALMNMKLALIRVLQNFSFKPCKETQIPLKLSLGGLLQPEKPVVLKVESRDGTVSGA

O=C(OCC(=O)N1CCN(c2ccccc2)CC1)c1ccc([N+](=O)[O-])s1
IC50 [1]: 2.31 µM (active)
IC50 (Caspase-3): 10.2 µM (active)
EC50 [2]: 24.8 µM (inactive)
IC50 [3]: 6.71 µM (active)
IC50 [4]: 5.37 µM (active)
IC50 [5]: 13.8 µM (active)

COc1cccc(-c2nnc3n2N=C(C(C)(C)C)CS3)c1
AC50 [6]: 2.3 µM (active)
AC50 [7]: 4.82 µM (active)
AC50 [8]: 0.976 µM (active)
AC50 [9]: 2.95 µM (active)
IC50 [10]: 3.31 µM (active)
AC50 (Cytochrome P450 3A4): 25.1 µM (inconclusive)
AC50 [11]: 8.72 µM (active)
EC50 [12]: 2.96 µM (active)
IC50 (Interleukin-8 [13]): 42.4 µM (inactive)
IC50 (Interleukin-8 [14]): 4.14 µM (active)
AC50 [15]: 8.58 µM (active)
AC50 [16]: 1.25 µM (active)

CCSc1nc(C)c(C)c(O)n1
CC50 [17]: > 100 µM (active)

O=C(CSc1cccc2cccnc12)Nc1ccccc1F
AC50 [18]: 90.5 µM (active)

O=[N+]([O-])c1cccc(/C=N/n2c(S)nnc2C2CCCCC2)c1
IC50 [19]: 155 µM (inactive)
